Laboratory results: patent US5494930A, “Caribenolide I” (priority 1994, dated 1996)
Values joined by “and” are separate entries in the source; they are usually repeats but may differ in a detail not shown here. Equal entries are not always repeated.

Key:
M109 mouse lung tumors = assay: In vivo antitumor activity, s.c. implanted M109 mouse lung tumor (distal site)
Description: (§1) For in vivo evaluation of antitumor activity 1×10^6 P388 mouse leukemia cells were implanted in the intraperitoneal (i.p.) cavity or injected intravenously (i.v.) into (BALB/c ×DBA/2)F1 (CDF1) or (C57/BL6×DBA/2)F1 (BDF1) mice (Roseet al., 1983). Compound (1) was dissolved in DMSO and diluted with saline to the desired concentrations. Injection of Compound (1) was by the i.p. or i.v. route beginning on the first day after tumor implantation and consecutively every day for five treatments (qldX5:1). Increases in lifespan were reflected by the median survival time of treated (T) versus control (C) groups for which a % T/C was calculated. When antitumor activity was evaluated in M109 mouse lung .tumors, 0.2 ml of a 2.0% brei was implanted subcutaneously (s.c.) in CDF1 mice (Rose, 1981). The treatment schedule was one injection per day for days 4-8 after tumor implantation. Results are expressed as % T/C. Tumor growth inhibition was determined by calculating the relative median times for T and C mice to reach a 1 g size. Tumor weights were interchangeable with tumor size on the basis of 1 mm^3 =1 mg. The activity criterion for tumor growth inhibition (T-C) was approximately equal to a T-C of 4 days. Depending on the tumor volume doubling time for the M109 tumors in control mice, this amount of delay in tumor growth is consistent with about one log of cell kill. For both P388 and M109 tumor models, a T/C of […] was considered an active result.
(§2) Initial testing was done versus i.p. implanted P388 mouse leukemia. An optimal dose of 0.03 mg/kg/inj given i.p. produced a 50% increase in lifespan (150% T/C). In addition, Compound (1) was evaluated in two distal site models; i.v. implanted P388 or s.c. implanted M109 in which Compound (1) was given by i.v. injection.

P388 mouse leukemia [1] = assay: In vivo antitumor activity, i.v. implanted P388 mouse leukemia (distal site)
Description: as §1, §2

[2] = as above; conditions: mouse, in vivo, iv; P388 i.v.; qd 1-5, i.v.; read-out: maximum tolerated dose (MTD)
Description: as §1, §2

[3] = system: human colon carcinoma cell line HCT 116; assay: In vitro cytotoxicity assay (XTT); assay type: cell-based
Description: Cytotoxicity for the pure compound was assessed in several HCT116 cell lines by XTT (2,3-bis(2-methoxy-4-nitro-5-sulfophenyl)-5-[(phenylamino)carbonyl]-2H-tetrazolium hydroxide assay (Scudiero, 1988). Cells were seeded at 4000 cells/well in 96 well microtiter plates. 24 hrs later drugs were added and serial diluted. The cells were incubated at 37° C. for 72 hrs at which time the tetrazolium dye, XTT, was added. A dehydrogenase enzyme in live cells reduces the XTT to a form that absorbs light at 450 nm and which can be quantitated spectrophotometrically. The greater the absorbance the greater the number of live cells. The results are expressed as an IC50 which is the drug concentration required to inhibit cell proliferation (i.e. absorbance at 450 nm) to 50% of that of untreated control cells.

P388 mouse leukemia [4] = assay: In vivo antitumor activity, i.p. implanted P388 mouse leukemia
Description: as §1, §2

Q: With `C=C1C(O)CC(=O)C(C)C=C(C)CC(O)C2(O)OC(CCC2O)CC2CCC(O2)C(CCCC)OC(=O)C(C)C(O)C2OC12` (stereo not shown) [Compound (1), caribenolide I] as the molecule, how does the “MST, % T/C (median survival time treated vs control)” value (from here on “MST, % T/C”) (M109 mouse lung tumors; 0.060/0.120 mg/kg/inj, qd 4-8, i.v.) read?
A: Its value is 128%.

Q: And the “T-C (tumor growth delay)” value (M109 mouse lung tumors; 0.060/0.120 mg/kg/inj, qd 4-8, i.v., time to 1 g size)?
A: Its value is 1.3 days.

Q: What about the “distal site activity (in words)” value (M109 mouse lung tumors; i.v. dosing) of the same molecule?
A: Its value is “no meaningful distal site activity”.

Q: What about the “OD, first printed value” (M109 mouse lung tumors; qd 4-8, i.v.) of the same molecule?
A: The value was 0.060 mg/kg/inj.

Q: And the “OD, second printed value” (M109 mouse lung tumors; qd 4-8, i.v.)?
A: Its value is 0.120 mg/kg/inj.

Q: What about the “increase in life span (in words)” value (P388 mouse leukemia [1]; P388 i.v., doses up to MTD 0.064 mg/kg/inj, i.v.) of the same molecule?
A: Its value is “did not increase the life span”.

Q: What about the “MST, % T/C” value (P388 mouse leukemia [1]; iv, 0.064 mg/kg) of the same molecule?
A: The value was 107%.

Q: And the MTD [2]?
A: Its MTD is 0.064 mg/kg.

Q: And the “cytotoxicity in vitro (in words)” value [3]?
A: Its value is “potent cytotoxicity”.

Q: What about the IC50 ([3]; human colon carcinoma HCT 116, XTT, 72 hrs) of the same molecule?
A: Its IC50 is 1.6 nM.

Q: What about the “optimal dose (OD)” value (P388 mouse leukemia [4]; P388 i.p., qd 1-5, i.p.) of the same molecule?
A: Its value is 0.03 mg/kg/inj and 0.030 mg/kg/inj.

Q: What about the “MST, % T/C” value (P388 mouse leukemia [4]; ip, 0.03 mg/kg) of the same molecule?
A: The value was 150%.

Q: And the increase in lifespan (P388 mouse leukemia [4]; ip, 0.03 mg/kg)?
A: The increase in lifespan was 50%.
